{
  "source": "paper PMC4089482",
  "about": "“Bacterial periplasmic sialic acid-binding proteins exhibit a conserved binding site” (Acta Crystallographica Section D: Biological Crystallography, 2014)",
  "key": {"[1]": {"tested_on": "V. cholerae O1 biovar eltor strain N16961", "assay": "Growth-curve experiment in M9 minimal medium with different sugars", "type": "cell-based, Vibrio cholerae", "conditions": "M9 minimal medium supplemented with sugar (5 mg ml^−1; all at 5 mM), 37°C", "experimental": "V. cholerae O1 biovar eltor strain N16961 was initially grown on LB agar plates. Subsequently, 3 ml M9 minimal medium supplemented with different sugars (5 mg ml^−1) was inoculated with bacteria at an OD600 of 0.07. These cultures were incubated in a 37°C shaker at 225 rev min^−1. Optical densities at A 600 were measured at various time points using a Spectronic GENESYS 20 Visible Spectrophotometer to observe the growth pattern of V. cholerae in different compounds. The different sugars used were Neu5Ac, Neu5Gc, fetuin (a glycoprotein of foetal serum that contains different sugars and sialic acid; Spiro, 1960[▶]), asialofetuin, galactose, glycerol, D-lactic acid, succinate, sucrose, DL-malic acid and fructose, all at 5 mM concentration. Based on the readings, a graph of OD600 was plotted."}, "Pm-SiaP": {"biological_target": "Pm-SiaP (Pasteurella multocida, UniProt Q9CKB5)", "sequence (Q9CKB5 22-327)": "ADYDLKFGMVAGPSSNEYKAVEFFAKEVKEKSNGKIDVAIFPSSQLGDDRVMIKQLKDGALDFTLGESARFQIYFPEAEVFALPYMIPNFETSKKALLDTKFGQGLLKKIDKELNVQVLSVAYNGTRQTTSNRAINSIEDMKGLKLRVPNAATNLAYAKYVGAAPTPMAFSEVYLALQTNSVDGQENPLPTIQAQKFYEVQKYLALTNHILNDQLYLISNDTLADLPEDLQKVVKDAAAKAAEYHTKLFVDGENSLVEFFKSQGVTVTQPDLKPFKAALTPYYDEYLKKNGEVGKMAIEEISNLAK", "assay": "ITC binding of sialic acids to Pm-SiaP", "conditions": "ITC, 20 mM HEPES pH 8.0, 10 mM NaCl, 25°C", "experimental": "(§1) ITC measurements were performed using a MicroCal ITC system (GE Healthcare). The reaction buffer for all of the experiments was 20 mM HEPES pH 8.0, 10 mM NaCl. All titrations were carried out at 25°C. The protein concentration was determined using the Bio-Rad Bradford reagent. The concentrations of SiaP and Neu5Ac/Neu5Gc were varied in the different titrations and each binding experiment was repeated three times. The nonspecific heat released by the dilution of both the sugars and the protein was calculated by averaging the heat liberated during the last 3–5 injections after saturation. This value was then subtracted from the raw heat released during each injection. To derive the stoichiometric values, the data sets were analyzed using a single-site binding model from the Origin ITC analysis software (MicroCal). In this analysis, the values for the stoichiometry, the change in enthalpy (ΔH) and the affinity were fitted using nonlinear least-squares analysis. To derive the values for the affinity, ΔS and ΔH, data sets were globally analyzed using the single-site binding model in SEDPHAT (Vistica et al., 2004[▶]; Dam & Schuck, 2005[▶])."}, "Vc-SiaP": {"biological_target": "T1, Vc-SiaP (Vibrio cholerae serotype O1, UniProt Q9KR64)", "T1 construct": "PCR-amplified using the forward primer 5′-[…]-3′; made in house; host or cells: Escherichia coli BL21 (DE3)", "T1 sequence (Q9KR64 23-321)": "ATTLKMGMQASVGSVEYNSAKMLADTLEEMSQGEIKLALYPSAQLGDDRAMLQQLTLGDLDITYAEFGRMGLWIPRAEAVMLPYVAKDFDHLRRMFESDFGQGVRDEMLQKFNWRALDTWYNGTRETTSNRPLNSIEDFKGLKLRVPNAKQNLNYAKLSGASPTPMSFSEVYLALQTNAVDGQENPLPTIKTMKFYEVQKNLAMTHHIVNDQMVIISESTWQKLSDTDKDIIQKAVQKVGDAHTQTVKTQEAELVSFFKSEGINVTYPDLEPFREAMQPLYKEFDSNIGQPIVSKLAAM", "assay": "ITC binding of sialic acids to Vc-SiaP", "conditions": "20 mM HEPES pH 8.0, 10 mM NaCl, 25°C", "experimental": "as §1"}, "Fn-SiaP": {"biological_target": "Fn-SiaP (Fusobacterium nucleatum subsp. nucleatum, UniProt Q8RDN9)", "sequence (Q8RDN9 24-327)": "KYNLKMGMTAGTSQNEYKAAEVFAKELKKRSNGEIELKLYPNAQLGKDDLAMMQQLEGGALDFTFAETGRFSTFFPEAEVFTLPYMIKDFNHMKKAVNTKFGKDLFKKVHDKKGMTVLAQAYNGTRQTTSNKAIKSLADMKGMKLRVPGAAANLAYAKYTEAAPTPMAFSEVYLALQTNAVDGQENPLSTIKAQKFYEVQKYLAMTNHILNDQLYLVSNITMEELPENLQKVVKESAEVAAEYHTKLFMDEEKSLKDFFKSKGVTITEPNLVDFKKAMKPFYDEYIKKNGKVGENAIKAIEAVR", "assay": "ITC binding of sialic acids to Fn-SiaP", "conditions": "20 mM HEPES pH 8.0, 10 mM NaCl, 25°C", "experimental": "as §1"}},
  "note": "“Also recorded” adds a separate entry of the source.",
  "data": [
    {"smiles": "C[C@@H](O)C(=O)O", "note": "[D-lactic acid]", "values": [
      {"measurement": "growth of V. cholerae in the presence of the compound (OD600)", "setting": "[1]", "value": "No growth"}
    ]},
    {"smiles": "O=C(CO)N[C@H]1[C@H]([C@H](O)[C@H](O)CO)OC(O)(C(=O)O)C[C@@H]1O", "note": "(stereo partly drawn) [Neu5Gc]", "values": [
      {"measurement": "H (change in enthalpy, ΔH)", "setting": "Pm-SiaP", "value": 7469, "unit": "calmol^1"},
      {"measurement": "T S (entropic component)", "setting": "Pm-SiaP", "value": 2777.3, "unit": "calmol^1"},
      {"measurement": "Kd", "setting": "Pm-SiaP; read-out: K d", "value": 30.7, "unit": "nM"},
      {"measurement": "H (change in enthalpy, ΔH)", "setting": "Vc-SiaP", "value": 5200, "unit": "calmol^1"},
      {"measurement": "Kd", "setting": "Vc-SiaP", "value": 1090, "unit": "nM"},
      {"measurement": "T S (entropic component)", "setting": "Vc-SiaP", "value": 1127.6, "unit": "calmol^1"},
      {"measurement": "H (change in enthalpy, ΔH)", "setting": "Fn-SiaP", "value": 12074, "unit": "calmol^1"},
      {"measurement": "Kd", "setting": "Fn-SiaP", "value": 45.7, "unit": "nM"},
      {"measurement": "T S (entropic component)", "setting": "Fn-SiaP", "value": 2059.4, "unit": "calmol^1"},
      {"measurement": "growth of V. cholerae in the presence of the compound (OD600)", "setting": "[1]", "value": "No growth; also recorded: cannot use Neu5Gc as a carbon source"}
    ]},
    {"smiles": "O=C(O)CC(O)C(=O)O", "note": "(racemic) [DL-malic acid]", "values": [
      {"measurement": "growth of V. cholerae in the presence of the compound (OD600)", "setting": "[1]", "value": "Little growth"}
    ]},
    {"smiles": "OC[C@H]1O[C@@](CO)(O[C@H]2O[C@H](CO)[C@@H](O)[C@H](O)[C@H]2O)[C@@H](O)[C@@H]1O", "note": "[sucrose]", "values": [
      {"measurement": "growth of V. cholerae in the presence of the compound (OD600)", "setting": "[1]", "value": "Little growth"}
    ]},
    {"smiles": "OCC(O)CO", "note": "[glycerol]", "values": [
      {"measurement": "growth of V. cholerae in the presence of the compound (OD600)", "setting": "[1]", "value": "No growth"}
    ]},
    {"smiles": "O=C(CO)[C@@H](O)[C@H](O)[C@H](O)CO", "note": "[fructose]", "values": [
      {"measurement": "growth of V. cholerae in the presence of the compound (OD600)", "setting": "[1]", "value": "Little growth"}
    ]}
  ]
}
